Test results: US7482360B2, “Fused tetracyclic mGluR1 antagonists as therapeutic agents” (Schering Corporation, priority 2005, dated 2009)
Read-outs that look alike come from different tables or passages of the source.

Target: T1, hmGluR1 receptor (Homo sapiens, UniProt Q13255)
T1 construct: expressed in transfected cells; host or cells: CHO
Test: IC50 Determination: intracellular calcium mobilization (FLIPR) in a CHO cell line stably expressing hmGluR1 receptor, against Quisqualate
Format: cell-based
Conditions: CHO cells expressing hmGluR1, against Quisqualate 1 μM (EC80), compounds added 10 minutes before agonist
Protocol: A CHO cell line stably expressing hmGluR1 receptor was established. One day prior to assay, cells were split in growth media at concentration of 50,000 cells/well in a volume of 100 μl and seeded into black clear-bottom 96-well plates. After two to six hours, when cells were well attached to the plate, growth medium was replaced with assay medium (100 μL) consisting of DMEM high glucose, supplemented with GPT (1 U/mL) and sodium pyruvate, 1 mM. Following overnight incubation, medium was discarded and cells were loaded for 2 hours with dye from the Calcium 3 Assay Reagent Kit (Molecular Devices, # R8033), prepared according to manufacturers' instructions. A 96-tip pipettor/fluorometric imaging plate reader (FLIPR 384; Molecular Devices) was used and intracellular calcium mobilization was measured by increases in fluorescence upon agonist Quisqualate stimulation following 6 sec-baseline measurement. Test compounds were added 10 minutes before Quisqualate. IC50 determinations for tested compounds were generated against Quisqualate 1 μM corresponding to EC80 value in a standard dose response curve.

T1 sequence (Q13255 19-1194): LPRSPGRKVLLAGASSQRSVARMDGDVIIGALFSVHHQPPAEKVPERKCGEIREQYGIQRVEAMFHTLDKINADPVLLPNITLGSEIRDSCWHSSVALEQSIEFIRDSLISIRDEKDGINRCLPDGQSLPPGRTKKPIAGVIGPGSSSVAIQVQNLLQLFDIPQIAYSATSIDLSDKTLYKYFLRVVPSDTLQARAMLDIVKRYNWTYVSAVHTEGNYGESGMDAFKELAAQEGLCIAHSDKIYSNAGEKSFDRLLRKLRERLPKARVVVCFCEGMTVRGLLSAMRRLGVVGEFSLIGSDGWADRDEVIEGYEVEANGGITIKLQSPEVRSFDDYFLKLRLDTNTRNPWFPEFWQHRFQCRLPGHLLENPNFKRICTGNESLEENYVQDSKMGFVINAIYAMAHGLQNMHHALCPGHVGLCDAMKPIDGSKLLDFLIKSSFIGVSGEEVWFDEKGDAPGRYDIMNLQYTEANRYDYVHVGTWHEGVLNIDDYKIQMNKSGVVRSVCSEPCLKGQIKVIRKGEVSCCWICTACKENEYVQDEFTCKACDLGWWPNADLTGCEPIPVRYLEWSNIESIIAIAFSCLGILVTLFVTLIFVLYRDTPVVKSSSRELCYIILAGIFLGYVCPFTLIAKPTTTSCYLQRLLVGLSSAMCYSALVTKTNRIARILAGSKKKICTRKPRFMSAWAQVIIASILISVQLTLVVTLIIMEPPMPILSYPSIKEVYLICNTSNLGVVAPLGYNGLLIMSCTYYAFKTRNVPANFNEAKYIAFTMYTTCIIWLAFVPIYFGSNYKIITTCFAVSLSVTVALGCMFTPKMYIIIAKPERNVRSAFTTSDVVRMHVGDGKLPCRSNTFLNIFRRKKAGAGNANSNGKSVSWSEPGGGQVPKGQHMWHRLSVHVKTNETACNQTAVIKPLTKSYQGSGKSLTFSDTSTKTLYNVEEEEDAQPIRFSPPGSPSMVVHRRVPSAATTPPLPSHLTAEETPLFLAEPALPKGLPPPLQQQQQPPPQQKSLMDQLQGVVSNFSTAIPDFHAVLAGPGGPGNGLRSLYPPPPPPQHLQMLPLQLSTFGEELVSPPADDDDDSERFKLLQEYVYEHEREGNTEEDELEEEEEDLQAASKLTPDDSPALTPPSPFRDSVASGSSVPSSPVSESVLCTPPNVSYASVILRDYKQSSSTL

Row | SMILES | IC50 (read-out: mGluR1 IC50 rating) | IC50 (read-out: mGluR1 IC50)
1 | Cn1ncc2cnc3sc4c(=O)n(C5CCCCC5)cnc4c3c21 [Compound 4] | 100 to 1000 nM | 
2 | Cn1ccc2cnc3sc4c(=O)n(C5CCCCC5)cnc4c3c21 [Compound 6] | 20 to 100 nM | 
3 | Cn1cnc2cnc3sc4c(=O)n(C5CCCCC5)cnc4c3c21 [Compound 9] | 20 to 100 nM | 
4 | O=c1c2sc3ncc4nc[nH]c4c3c2ncn1C1CCCCC1 [Compound 12] | 20 to 100 nM | 23 nM
5 | O=c1c2sc3ncc4nn[nH]c4c3c2ncn1C1CCCCC1 [Compound 13] | 100 to 1000 nM | 
6 | O=c1c2sc3ncc4cn[nH]c4c3c2ncn1-c1ccc(Cl)cc1 [Compound 20a] | 20 to 100 nM | 38 nM
7 | Cc1ccc(-n2cnc3c(sc4ncc5cn[nH]c5c43)c2=O)cc1 [Compound 20b] | < 20 nM | 17 nM
8 | Cc1ccc(-n2cnc3c(sc4ncc5c(c43)OCC5)c2=O)cc1 [Compound 24] | 100 to 1000 nM | 
9 | Cc1ccc(-n2cnc3c(sc4ncc5cc[nH]c5c43)c2=O)cc1 [Compound 27a] | < 20 nM | 0.7 nM
10 | COc1ccc(-n2cnc3c(sc4ncc5cc[nH]c5c43)c2=O)cc1 [Compound 27b] | < 20 nM | 4.9 nM
11 | Cc1ccc(-n2cnc3c(sc4ncc5sc(=S)[nH]c5c43)c2=O)cc1 [Compound 28] | 100 to 1000 nM | 
12 | CSc1nc2c(cnc3sc4c(=O)n(-c5ccc(C)cc5)cnc4c32)s1 [Compound 29] | 100 to 1000 nM | 
13 | Cc1ccc(-n2cnc3c(sc4ncc5sc(=O)[nH]c5c43)c2=O)cc1 [Compound 30] | 100 to 1000 nM | 
14 | Cc1ccc(-n2cnc3c(sc4ncc5ccn(C)c5c43)c2=O)cc1 [Compound 31] | 20 to 100 nM | 
15 | O=c1c2sc3ncc4cc[nH]c4c3c2ncn1-c1ccc(Cl)cc1 [Compound 34] | < 20 nM | 0.4 nM
16 | O=c1c2sc3ncc4nc[nH]c4c3c2ncn1-c1ccc(Cl)cc1 [Compound 35] | < 20 nM | 6 nM

Row | SMILES | IC50 (read-out: mGluR1 IC50 rating) | IC50 (read-out: mGluR1 IC50)
17 | Cn1cnc2cnc3sc4c(=O)n(-c5ccc(Cl)cc5)cnc4c3c21 [Compound 36] | < 20 nM | 9.8 nM
18 | O=c1c2sc3ncc(Br)c(NCCO)c3c2ncn1-c1ccc(Cl)cc1 [Compound 37a] | < 20 nM | 14.2 nM
19 | C[C@@H](O)CNc1c(Br)cnc2sc3c(=O)n(-c4ccc(Cl)cc4)cnc3c12 [Compound 37b] | > 1000 nM | 
20 | C[C@H](O)CNc1c(Br)cnc2sc3c(=O)n(-c4ccc(Cl)cc4)cnc3c12 [Compound 37c] | > 1000 nM | 
21 | C[C@H](CO)Nc1c(Br)cnc2sc3c(=O)n(-c4ccc(Cl)cc4)cnc3c12 [Compound 37d] | > 1000 nM | 
22 | C[C@@H](CO)Nc1c(Br)cnc2sc3c(=O)n(-c4ccc(Cl)cc4)cnc3c12 [Compound 37e] | > 1000 nM | 
23 | Cc1ccc(-n2cnc3c(sc4ncc(Br)c(N(C)CCO)c43)c2=O)cc1 [Compound 37f] | 100 to 1000 nM | 
24 | O=c1c2sc3ncc4c(c3c2ncn1-c1ccc(Cl)cc1)NCCO4 [Compound 38a] | < 20 nM | 2.9 nM
25 | C[C@@H]1CNc2c(cnc3sc4c(=O)n(-c5ccc(Cl)cc5)cnc4c23)O1 [Compound 38b] | < 20 nM | 1.4 nM
26 | C[C@H]1CNc2c(cnc3sc4c(=O)n(-c5ccc(Cl)cc5)cnc4c23)O1 [Compound 38c] | < 20 nM | 2.2 nM
27 | C[C@@H]1COc2cnc3sc4c(=O)n(-c5ccc(Cl)cc5)cnc4c3c2N1 [Compound 38d] | 20 to 100 nM | 
28 | C[C@H]1COc2cnc3sc4c(=O)n(-c5ccc(Cl)cc5)cnc4c3c2N1 [Compound 38e] | < 20 nM | 12 nM
29 | Cc1ccc(-n2cnc3c(sc4ncc5c(c43)N(C)CCO5)c2=O)cc1 [Compound 38f] | < 20 nM | 5.7 nM
30 | Cc1ccc(-n2cnc3c(sc4ncc5c(c43)NC[C@@H](C)O5)c2=O)cc1 [Compound 38g] | < 20 nM | 5.3 nM
31 | Cc1ccc(-n2cnc3c(sc4ncc5c(c43)NCCO5)c2=O)cc1 [Compound 38h] | < 20 nM | 2.2 nM
32 | COc1ccc(-n2cnc3c(sc4ncc5c(c43)NCCO5)c2=O)cc1 [Compound 38i] | < 20 nM | 2.5 nM
